From ChEMBL document CHEMBL5042472, “Design, Synthesis, and Biological Evaluation of a Novel Photocaged PI3K Inhibitor toward Precise Cancer Treatment” (J Med Chem, 2021) come the findings set out here.

Data set [1] deals with BGC-823. Put plainly: Antiproliferative activity against human BGC-823 cells assessed as reduction in cell viability irradiated with 365 nm of UV for 5 mins and incubated in dark for 96 hrs by MTT assay. It is filed as functional, cell-based. The conditions noted are these: BGC-823, light or radiation study. Background: Tetrazolium dyes change colour on reduction, which living cells bring about.

Data set [2] is described as follows: Retention time of the compound by HPLC analysis. The format is physicochemical.
Data set [3] is described as follows: Photo stability of compound assessed as release of 2,4-difluoro-N-(2-methoxy-5-(4-methyl-8-(tetrahydro-2H-pyran-4-yloxy)quinazolin-6-yl)pyridin-3-yl)benzenesulfonamide by measuring half life irradiated with 365 nm of UV for 5 min measured by HPLC analysis. The format is physicochemical.
Data set [4] is described as follows: Stability of the compound in dark condition at room temperature after 6 month. The conditions noted are these: 4380 h; time 6 months. The format is physicochemical.
Data set [5] concerns the target Phosphatidylinositol 4,5-bisphosphate 3-kinase catalytic subunit gamma isoform (Homo sapiens, UniProt P48736). Put plainly: Inhibition of PI3K gamma (unknown origin) using PIP2 as substrate incubated in dark at room temperature for 1 hr in presence of ATP by ADP-Glo luminescent assay. (ADP-Glo first removes unused ATP, then detects ADP through luciferase.)
For data set [6], the target named is T1, Phosphatidylinositol 4,5-bisphosphate 3-kinase catalytic subunit delta isoform (Homo sapiens, UniProt O00329).
T1 sequence (O00329 whole entry): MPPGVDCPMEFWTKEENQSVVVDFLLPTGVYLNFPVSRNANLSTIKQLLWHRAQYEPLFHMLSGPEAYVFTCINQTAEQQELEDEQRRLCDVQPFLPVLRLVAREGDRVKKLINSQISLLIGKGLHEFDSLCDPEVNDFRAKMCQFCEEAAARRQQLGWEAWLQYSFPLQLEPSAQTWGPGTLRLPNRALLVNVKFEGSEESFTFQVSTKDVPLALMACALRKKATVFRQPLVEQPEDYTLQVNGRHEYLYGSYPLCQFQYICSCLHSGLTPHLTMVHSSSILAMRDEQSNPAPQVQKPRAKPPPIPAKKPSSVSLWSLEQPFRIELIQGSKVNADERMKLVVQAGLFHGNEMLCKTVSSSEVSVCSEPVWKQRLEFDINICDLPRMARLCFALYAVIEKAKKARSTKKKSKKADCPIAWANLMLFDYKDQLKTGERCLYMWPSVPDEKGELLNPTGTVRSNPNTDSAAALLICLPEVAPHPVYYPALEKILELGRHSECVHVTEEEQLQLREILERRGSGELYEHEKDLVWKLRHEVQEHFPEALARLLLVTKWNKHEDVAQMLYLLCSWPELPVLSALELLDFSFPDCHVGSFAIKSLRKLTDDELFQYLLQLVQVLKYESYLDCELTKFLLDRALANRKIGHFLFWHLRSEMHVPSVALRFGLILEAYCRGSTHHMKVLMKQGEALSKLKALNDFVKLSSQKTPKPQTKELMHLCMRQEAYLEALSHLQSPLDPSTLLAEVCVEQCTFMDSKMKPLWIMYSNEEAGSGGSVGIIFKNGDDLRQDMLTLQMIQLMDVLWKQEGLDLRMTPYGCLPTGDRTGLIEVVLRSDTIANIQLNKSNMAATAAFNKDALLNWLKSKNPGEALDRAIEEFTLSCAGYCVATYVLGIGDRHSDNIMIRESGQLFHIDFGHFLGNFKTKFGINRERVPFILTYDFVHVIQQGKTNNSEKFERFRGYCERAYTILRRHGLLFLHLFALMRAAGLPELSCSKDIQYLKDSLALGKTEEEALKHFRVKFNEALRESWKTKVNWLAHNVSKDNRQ
As to the kind of experiment: Inhibition of PI3K delta (unknown origin) using PIP2 as substrate incubated in dark at room temperature for 1 hr in presence of ATP by ADP-Glo luminescent assay.

In data set [7] the target is Phosphatidylinositol 4,5-bisphosphate 3-kinase catalytic subunit alpha isoform (Homo sapiens, UniProt P42336). Put plainly: Inhibition of PI3K alpha (unknown origin) using PIP2 as substrate irradiated with 365 nm of UV exposure for 2 mins and incubation in dark at room temperature for 1 hr in presence of ATP measured by ADP-Glo luminescent assay.
The subject of data set [8] is MGC-803. Put plainly: Antiproliferative activity against human MGC-803 cells assessed as reduction in cell viability irradiated with 365 nm of UV for 5 mins and incubated in dark for 96 hrs by MTT assay. The format is functional, cell-based. The settings on record: MGC-803, light or radiation study.
Data set [9] relates to AGS. As to the kind of experiment: Antiproliferative activity against human AGS cells assessed as reduction in cell viability irradiated with 365 nm of UV for 5 mins and incubated in dark for 96 hrs by MTT assay. It is filed as functional, cell-based. The conditions noted are these: light or radiation study.
For data set [10], the system named is HCT-116. Put plainly: Antiproliferative activity against human HCT-116 cells assessed as reduction in cell viability incubated in dark for 96 hrs by MTT assay. It is filed as functional, cell-based. The settings on record: HCT-116, 96 h.
Data set [11] in a line: Plasma protein binding in rat at 1 uM by LC-MS/MS analysis. It is filed as ADME, cell-free. The conditions noted are these: read-out: PPB (converted).
Data set [12] can be described thus: Stability in rat plasma assessed as half life at 1 uM measured upto 120 min by LC-MS/MS analysis. It is filed as ADME, cell-free.
Data set [13] can be described thus: Apparent permeability across apical to basolateral side in human Caco-2 cells at 10 uM incubated for 2 hrs by LC-MS/MS analysis. It is filed as ADME, cell-based. A general note: Caco-2 cells form a polarised layer with tight junctions and transporters.
For data set [14], the system named is HCT-116. As to the kind of experiment: Inhibition of PI3K/AKT signalling pathway in human HCT-116 cells assessed as downregulation of […] phosphorylation at 100 nM irradiated with 365 nm UV light for 5 mins and incubated for 24 hrs by Western blot. The format is cell-based.
Data set [15] relates to HGC-27. Put plainly: Inhibition of PI3K/AKT signalling pathway in human HGC-27 cells assessed as downregulation of AKT phosphorylation at […] residue at 100 nM irradiated with 365 nm UV light for 5 mins and incubated for 24 hrs by Western blot. It is filed as cell-based.
Data set [16] relates to HCT-116. Put plainly: Inhibition of PI3K/AKT signalling pathway in human HCT-116 cells assessed as downregulation of AKT phosphorylation at Ser473 residue at 100 nM incubated for 24 hrs under dark condition by Western blot. The format is cell-based.
Data set [17] has as its system HCT-116. As to the kind of experiment: Inhibition of PI3K/AKT signalling pathway in human HCT-116 cells assessed as downregulation of AKT phosphorylation at […] residue at 100 nM incubated for 24 hrs under dark condition by Western blot. The format is cell-based.
In data set [18] the test system is HGC-27. As to the kind of experiment: Inhibition of PI3K/AKT signalling pathway in human HGC-27 cells assessed as downregulation of AKT phosphorylation at […] residue at 100 nM incubated for 24 hrs under dark condition by Western blot. The format is cell-based.
Data set [19] relates to HGC-27. As to the kind of experiment: Induction of cell cycle arrest in human HGC-27 cells assessed as accumulation at G0/G1 phase at 100 nM irradiated with 365 nm UV light for 5 mins and incubated for 24 hrs by flow cytometry. The format is functional, cell-based.
The species entered for data set [20] is Homo sapiens. As to the kind of experiment: Anticancer activity against KOCO-096 patient derived colon cancer organoid assessed as inhibition of cell growth irradiated with 365 nm of UV light for 2 mins and incubated for 120 hrs. The format is functional, tissue-based.
The species named for data set [21] is Homo sapiens. As to the kind of experiment: Anticancer activity against KOES-007 patient derived stomach cancer organoid assessed as inhibition of cell growth irradiated with 365 nm of UV light for 5 mins and incubated for 120 hrs. The format is functional, tissue-based.
Data set [22] is described as follows: Stability in dog plasma assessed as half life at 1 uM measured upto 120 min by LC-MS/MS analysis. The format is ADME, cell-free, Canis lupus familiaris.

Calls of active or inactive are those of the source. Where only a bound is given, the exact number is not on record here.

Sequence of Phosphatidylinositol 4,5-bisphosphate 3-kinase catalytic subunit alpha isoform (P42336 whole entry, canonical isoform): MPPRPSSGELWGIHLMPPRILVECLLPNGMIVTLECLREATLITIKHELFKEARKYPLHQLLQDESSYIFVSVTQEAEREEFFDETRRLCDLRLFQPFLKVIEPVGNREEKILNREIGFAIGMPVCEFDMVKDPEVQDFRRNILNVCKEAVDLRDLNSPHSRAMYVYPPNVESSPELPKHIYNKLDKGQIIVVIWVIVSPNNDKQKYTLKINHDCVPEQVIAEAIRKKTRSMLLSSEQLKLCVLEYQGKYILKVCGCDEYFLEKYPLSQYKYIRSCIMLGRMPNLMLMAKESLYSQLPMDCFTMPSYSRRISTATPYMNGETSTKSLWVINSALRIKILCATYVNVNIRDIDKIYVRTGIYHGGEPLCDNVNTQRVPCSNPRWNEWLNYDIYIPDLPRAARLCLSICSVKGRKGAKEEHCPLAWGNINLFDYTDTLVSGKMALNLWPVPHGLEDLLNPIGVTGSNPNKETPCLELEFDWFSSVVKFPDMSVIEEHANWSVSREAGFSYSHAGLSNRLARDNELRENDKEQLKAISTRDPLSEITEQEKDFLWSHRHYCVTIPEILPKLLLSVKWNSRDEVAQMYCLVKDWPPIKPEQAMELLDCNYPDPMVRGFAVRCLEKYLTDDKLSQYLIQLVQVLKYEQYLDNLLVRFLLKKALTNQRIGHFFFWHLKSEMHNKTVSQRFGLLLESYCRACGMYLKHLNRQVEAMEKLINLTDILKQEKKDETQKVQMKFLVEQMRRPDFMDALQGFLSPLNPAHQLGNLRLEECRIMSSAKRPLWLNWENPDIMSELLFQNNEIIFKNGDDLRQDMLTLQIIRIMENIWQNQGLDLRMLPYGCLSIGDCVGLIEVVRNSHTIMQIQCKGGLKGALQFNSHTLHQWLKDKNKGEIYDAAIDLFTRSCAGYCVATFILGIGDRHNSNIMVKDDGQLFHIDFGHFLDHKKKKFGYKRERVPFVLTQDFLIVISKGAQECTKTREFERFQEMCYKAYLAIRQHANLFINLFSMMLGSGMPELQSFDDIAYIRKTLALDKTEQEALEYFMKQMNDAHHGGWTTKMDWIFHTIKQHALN
Sequence of Phosphatidylinositol 4,5-bisphosphate 3-kinase catalytic subunit gamma isoform (P48736 whole entry, canonical isoform): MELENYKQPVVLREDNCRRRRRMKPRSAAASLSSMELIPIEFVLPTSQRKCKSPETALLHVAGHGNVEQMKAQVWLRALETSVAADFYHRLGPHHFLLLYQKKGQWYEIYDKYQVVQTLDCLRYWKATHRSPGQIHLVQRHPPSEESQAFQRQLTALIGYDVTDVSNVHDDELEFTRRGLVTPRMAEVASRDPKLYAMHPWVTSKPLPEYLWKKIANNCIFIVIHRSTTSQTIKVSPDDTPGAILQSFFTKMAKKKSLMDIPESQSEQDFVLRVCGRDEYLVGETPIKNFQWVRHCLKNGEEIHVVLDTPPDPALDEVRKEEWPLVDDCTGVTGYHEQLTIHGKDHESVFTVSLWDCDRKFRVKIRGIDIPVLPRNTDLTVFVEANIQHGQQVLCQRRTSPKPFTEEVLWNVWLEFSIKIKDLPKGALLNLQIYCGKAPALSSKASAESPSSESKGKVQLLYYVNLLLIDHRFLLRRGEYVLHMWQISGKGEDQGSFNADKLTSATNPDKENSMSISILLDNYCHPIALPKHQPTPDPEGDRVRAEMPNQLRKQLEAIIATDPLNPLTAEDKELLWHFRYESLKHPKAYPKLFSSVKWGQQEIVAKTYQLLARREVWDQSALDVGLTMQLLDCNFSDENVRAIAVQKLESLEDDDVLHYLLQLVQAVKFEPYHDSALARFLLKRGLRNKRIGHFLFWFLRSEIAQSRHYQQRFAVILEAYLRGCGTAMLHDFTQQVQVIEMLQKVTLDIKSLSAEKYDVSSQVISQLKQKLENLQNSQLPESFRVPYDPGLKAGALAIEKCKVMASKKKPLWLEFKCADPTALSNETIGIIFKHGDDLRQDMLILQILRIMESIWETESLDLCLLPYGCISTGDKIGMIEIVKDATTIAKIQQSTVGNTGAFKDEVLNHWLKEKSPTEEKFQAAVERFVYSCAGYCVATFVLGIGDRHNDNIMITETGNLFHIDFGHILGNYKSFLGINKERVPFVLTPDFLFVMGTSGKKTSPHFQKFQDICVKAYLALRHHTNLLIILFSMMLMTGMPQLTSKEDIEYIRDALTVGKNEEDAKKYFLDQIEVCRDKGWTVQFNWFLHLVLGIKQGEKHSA

What is called IC50 is the concentration at which inhibition is half-maximal. What is called half-life is the time needed for the level to fall by half in the phase considered. As usually defined, the Papp A→B is how fast a substance crosses the layer from the apical side. In the case of `COc1cc(CN(c2cc(-c3cc(OC4CCOCC4)c4ncnc(C)c4c3)cnc2OC)S(=O)(=O)c2ccc(F)cc2F)c([N+](=O)[O-])cc1OC`, the IC50 in data set [1] turned out to be 0.103 µM; in data set [5] it was 4.47 µM; in data set [6] it was 3.01 µM; in data set [7], 0.00058 µM; in [8], 0.329 µM; in data set [9], 0.0703 µM. In data set [10], the concentration for half-maximal inhibition (IC50) turned out to be 1.46 µM. Besides, the Retention_time in data set [2] came out at 4.7 min. In addition, the t1/2 in data set [3] was 5 min. For the same compound, the Stability entry in data set [4] is “Stable”. For the same compound, the fraction unbound at 1 µM in data set [11] is 0.006. Also, the half-life at 1 µM in data set [12] and in data set [22] was over 2 h throughout. The Papp A→B at 2 h, 10 µM in [13] came out at 0.49 ×10⁻⁶ cm/s. The inhibition result in [14] and in [15] was “Active” in each case. Besides, the inhibition result in data set [16], in [17] and in [18] was “inactive” in each case. Moreover, the outcome in data set [19] and in data set [20] was Active. For the same compound, the Activity entry in [21] is “Dose-Dependent Effect”.
